From PMC9725750, “The clinical pharmacology of tafenoquine in the radical cure of Plasmodium vivax malaria: An individual patient data meta-analysis” (eLife, 2022)

How the values were obtained:
blood MetHb = test: Blood methaemoglobin (MetHb) concentration on day 7 by pulse CO-oximeter; type: in vivo, human
Source text: All patients in the phase 1 trial and the three efficacy trials had frequent blood MetHb measurements taken using non-invasive signal extraction pulse CO-oximeter handheld machines. For the three efficacy trials, we excluded measurements taken at or after recurrence of vivax malaria. Because erroneous readings from the handheld oximeters can occur, we inspected visually the longitudinal MetHb curves for each patient. […] All patients from this site were excluded from the MetHb analysis ( n =91), resulting in a total of 9632 MetHb measurements across 746 P. vivax infected patients and 72 healthy volunteers.

[1] = no reference given; cited from earlier work
Plasmodium vivax = test: Radical cure efficacy: any P. vivax recurrence within 4 months in patients, pooled DETECTIVE part 1/2 and GATHER (logistic regression and Emax models); type: in vivo, human
Source text: The primary endpoint for the main efficacy analyses was any P. vivax recurrence within 4 months. We chose the binary endpoint of any recurrence rather than the time to first recurrence because tafenoquine has both asexual stage antimalarial activity ([Fukuda et al., 2017]) and hypnozoiticidal activity. […] The choice of a particular cut-off for follow-up is thus a trade-off between sensitivity and specificity. Longer follow-up will increase the sensitivity of the endpoint (include more relapses) but decrease specificity (include more reinfections).
For all predictors we fitted Bayesian mixed effects logistic regression models (random intercepts for study and study site), with adjustment for day 0 parasitaemia (log transformed). Logistic regression allows inference of the odds-ratio for recurrence for the predictive variable of interest, assuming a linear relationship between the predictive variable and log-odds for recurrence.
For the mg/kg dose (the primary predictor of interest), the dose-response relationship was then assessed under a Bayesian Emax model, where the dose-dependent logit probability of recurrence is defined as: Emax(d,x)=α+βx+δd^k/d^k+γ^k,
The Emax model was also fitted with random intercepts for study and study site.
To determine the main predictors of recurrence, we fitted a multivariable penalised Bayesian logistic regression model. This included the following variables as predictors: the tafenoquine mg/kg dose; the plasma tafenoquine AUC[0,∞); the plasma tafenoquine Cmax; the day 7 MetHb concentration (%); the terminal elimination half-life t1/2; and the baseline parasite density. The model included random intercept terms for each study and study site. […] To avoid convergence issues resulting from the co-linearity of the predictors, the prior on all non-hierarchical coefficients was set to a Normal(0,0.5). This prior effectively shrinks the regression coefficients towards zero. It can be interpreted as follows: plausible odds-ratios for recurrence for one standard deviation change for each of the fixed effect predictors lie approximately between 0.38 and 2.7).
In a priori sensitivity analyses, all recurrences up until 6 months were included as both binary and time to event outcomes. The time to first recurrence was defined as a P. vivax episode between day 7 and day 180 with right censoring at the last recorded visit. We also re-ran the same models in patients who received a 300 mg single dose of tafenoquine only (i.e. the current recommended treatment).

With CCCCN(CCCC)CC(O)c1cc(Cl)cc2c1-c1ccc(Cl)cc1/C2=C/c1ccc(Cl)cc1 (stereo not drawn) [lumefantrine] the “reduction in day 7 methaemoglobin per ten-fold increase in day 7 plasma lumefantrine concentration” value (blood MetHb; healthy volunteers randomised to tafenoquine + AL, 95% CI 3 to 62%) was 40%.
For COc1cc(NC(C)CCCN)c2ncccc2c1 (stereo not drawn) [primaquine], the terminal elimination half-life [1] is listed as 5 h, the “posterior probability that the recurrence was more likely following primaquine” value (Plasmodium vivax; 3.5 mg/kg primaquine vs 5 mg/kg tafenoquine) is listed as 0.73 and the “Recurrence at 4 months” value (Plasmodium vivax; PQ low-dose 15 mg base daily for 14 days + chloroquine, n=257) is listed as 57 (22.2) total number (%). The “mean probability of recurrence at 4 months” value (Plasmodium vivax; logistic model estimate, following 3.5 mg/kg primaquine, 95% CI 0.10–0.26) was 0.17.
With Clc1ccc2c(N3CCN(CCCN4CCN(c5ccnc6cc(Cl)ccc56)CC4)CC3)ccnc2c1 [piperaquine] the “association of day 7 piperaquine concentration with day 7 MetHb (reduction)” value (blood MetHb; healthy volunteers, tafenoquine + DHA-PQP, no clear association, 95% CI –27 to 72%) was 40%.
